According to ChEMBL document CHEMBL4507262, “Data for DCP probe A-1596586” (2021):

Tests used:
[1] = target: Urotensin-2 receptor (Homo sapiens) (UniProt Q9UKP6); experiment: UT (h) Eurofins-Cerep binding assay; design: ligand concentration 0.1 nM; settings: filed as agonist, Compound concentration 10.0 uM
[2] = target: Serine/threonine-protein kinase 17A (Homo sapiens) (UniProt Q9UEE5); settings: Compound concentration 1000.0 nM
[3] = target: Phosphatidylinositol 4,5-bisphosphate 3-kinase catalytic subunit delta isoform (Homo sapiens) (UniProt O00329); settings: Compound concentration 1000.0 nM
[4] = target: Macrophage colony-stimulating factor 1 receptor (Homo sapiens) (UniProt P07333); settings: Compound concentration 1000.0 nM
[5] = system: Receptor-type tyrosine-protein kinase FLT3 (Homo sapiens), P36888 [R834Q]; settings: Compound concentration 1000.0 nM
[6] = target: Muscarinic acetylcholine receptor M1 (Homo sapiens) (UniProt P11229); experiment: M1 (h) Eurofins-Cerep binding assay; design: ligand concentration 2 nM; settings: filed as antagonist, Compound concentration 10.0 uM
[7] = target: Kappa-type opioid receptor (Homo sapiens) (UniProt P41145); experiment: kappa (h) (KOP) Eurofins-Cerep binding assay; design: ligand concentration 0.5 nM; settings: filed as agonist, Compound concentration 10.0 uM
[8] = target: Ribosomal protein S6 kinase alpha-1 (Homo sapiens) (UniProt Q15418); settings: Compound concentration 1000.0 nM
[9] = system: Proto-oncogene tyrosine-protein kinase receptor Ret (Homo sapiens), P07949 [V804M]; settings: Compound concentration 1000.0 nM
[10] = target: Tyrosine-protein kinase Fgr (Homo sapiens) (UniProt P09769); settings: Compound concentration 1000.0 nM
[11] = target: Serine/threonine-protein kinase PknB (Mycobacterium tuberculosis) (UniProt P9WI81); settings: Compound concentration 1000.0 nM
[12] = target: Serine/threonine-protein kinase 33 (Homo sapiens) (UniProt Q9BYT3); settings: Compound concentration 1000.0 nM
[13] = target: Homeodomain-interacting protein kinase 1 (Homo sapiens) (UniProt Q86Z02); settings: Compound concentration 1000.0 nM
[14] = target: Serine/threonine-protein kinase Nek1 (Homo sapiens) (UniProt Q96PY6); settings: Compound concentration 1000.0 nM
[15] = target: Insulin-like growth factor 1 receptor (Homo sapiens) (UniProt P08069); settings: Compound concentration 1000.0 nM
[16] = system: Epidermal growth factor receptor (Homo sapiens), P00533 [UNDEFINED MUTATION]; settings: Compound concentration 1000.0 nM
[17] = target: Serine/threonine-protein kinase TBK1 (Homo sapiens) (UniProt Q9UHD2); settings: Compound concentration 1000.0 nM
[18] = target: Serine/threonine-protein kinase WNK3 (Homo sapiens) (UniProt Q9BYP7); settings: Compound concentration 1000.0 nM
[19] = system: Tyrosine-protein kinase ABL1 (Homo sapiens), P00519 [F317L]; settings: Compound concentration 1000.0 nM
[20] = target: Phosphatidylinositol 3-kinase C2 domain-containing subunit gamma (Homo sapiens) (UniProt O75747); settings: Compound concentration 1000.0 nM
[21] = target: Cyclin-dependent kinase 11B (Homo sapiens) (UniProt P21127); settings: Compound concentration 1000.0 nM
[22] = target: Sigma intracellular receptor 2 (Homo sapiens, UniProt Q5BJF2); experiment: GPCRScan assay: inhibition of Sigma 2; design: radioligand conc. used [nm] 5.0, parental cells HEKT
[23] = target: Histamine H4 receptor (Homo sapiens) (UniProt Q9H3N8); settings: Compound concentration 10.0 uM
[24] = target: Serine/threonine-protein kinase 25 (Homo sapiens) (UniProt O00506); settings: Compound concentration 1000.0 nM
[25] = target: 5-hydroxytryptamine receptor 2A (Homo sapiens) (UniProt P28223); settings: Compound concentration 10.0 uM
[26] = target: Calcium/calmodulin-dependent protein kinase type 1B (Homo sapiens) (UniProt Q6P2M8); settings: Compound concentration 1000.0 nM
[27] = target: Serine/threonine-protein kinase 16 (Homo sapiens) (UniProt O75716); settings: Compound concentration 1000.0 nM
[28] = target: Serine/threonine-protein kinase MAK (Homo sapiens) (UniProt P20794); settings: Compound concentration 1000.0 nM
[29] = system: Phosphatidylinositol 4,5-bisphosphate 3-kinase catalytic subunit alpha isoform (Homo sapiens), P42336 [E542K]; settings: Compound concentration 1000.0 nM
[30] = target: Fibroblast growth factor receptor 3 (Homo sapiens) (UniProt P22607); settings: Compound concentration 1000.0 nM
[31] = target: Serine/threonine-protein kinase Nek2 (Homo sapiens) (UniProt P51955); settings: Compound concentration 1000.0 nM
[32] = target: Tyrosine-protein kinase ABL2 (Homo sapiens) (UniProt P42684); settings: Compound concentration 1000.0 nM
[33] = target: Serine/threonine-protein kinase 26 (Homo sapiens) (UniProt Q9P289); settings: Compound concentration 1000.0 nM
[34] = target: Ephrin type-B receptor 2 (Homo sapiens) (UniProt P29323); settings: Compound concentration 1000.0 nM
[35] = system: Epidermal growth factor receptor (Homo sapiens), P00533 [UNDEFINED MUTATION]; settings: Compound concentration 1000.0 nM; remark: listed apart in the source
[36] = target: Transient receptor potential cation channel subfamily M member 6 (Homo sapiens) (UniProt Q9BX84); settings: Compound concentration 1000.0 nM
[37] = target: Cystic fibrosis transmembrane conductance regulator (Homo sapiens, UniProt P13569); experiment: CSE-HRP cell viability (Cell surface expression-horseradish peroxidase) assay
[38] = target: Serine/threonine-protein kinase ULK3 (Homo sapiens) (UniProt Q6PHR2); settings: Compound concentration 1000.0 nM
[39] = target: MAP kinase-interacting serine/threonine-protein kinase 1 (Homo sapiens) (UniProt Q9BUB5); settings: Compound concentration 1000.0 nM
[40] = target: Myosin light chain kinase family member 4 (Homo sapiens) (UniProt Q86YV6); settings: Compound concentration 1000.0 nM
[41] = system: Leucine-rich repeat serine/threonine-protein kinase 2 (Homo sapiens), Q5S007 [G2019S]; settings: Compound concentration 1000.0 nM
[42] = target: Rho-associated protein kinase 2 (Homo sapiens) (UniProt O75116); settings: Compound concentration 1000.0 nM
[43] = target: Sodium-dependent noradrenaline transporter (Homo sapiens) (UniProt P23975); experiment: norepinephrine transporter (h) Eurofins-Cerep binding assay; design: ligand concentration 1 nM; settings: filed as antagonist, Compound concentration 10.0 uM
[44] = target: Cholecystokinin receptor type A (Homo sapiens) (UniProt P32238); experiment: CCK1 (CCKA) (h) Eurofins-Cerep binding assay; settings: filed as agonist, Compound concentration 10.0 uM

Epidermal growth factor receptor (Homo sapiens), P00533 [UNDEFINED MUTATION], sequence (P00533 whole entry, looked up, change not shown): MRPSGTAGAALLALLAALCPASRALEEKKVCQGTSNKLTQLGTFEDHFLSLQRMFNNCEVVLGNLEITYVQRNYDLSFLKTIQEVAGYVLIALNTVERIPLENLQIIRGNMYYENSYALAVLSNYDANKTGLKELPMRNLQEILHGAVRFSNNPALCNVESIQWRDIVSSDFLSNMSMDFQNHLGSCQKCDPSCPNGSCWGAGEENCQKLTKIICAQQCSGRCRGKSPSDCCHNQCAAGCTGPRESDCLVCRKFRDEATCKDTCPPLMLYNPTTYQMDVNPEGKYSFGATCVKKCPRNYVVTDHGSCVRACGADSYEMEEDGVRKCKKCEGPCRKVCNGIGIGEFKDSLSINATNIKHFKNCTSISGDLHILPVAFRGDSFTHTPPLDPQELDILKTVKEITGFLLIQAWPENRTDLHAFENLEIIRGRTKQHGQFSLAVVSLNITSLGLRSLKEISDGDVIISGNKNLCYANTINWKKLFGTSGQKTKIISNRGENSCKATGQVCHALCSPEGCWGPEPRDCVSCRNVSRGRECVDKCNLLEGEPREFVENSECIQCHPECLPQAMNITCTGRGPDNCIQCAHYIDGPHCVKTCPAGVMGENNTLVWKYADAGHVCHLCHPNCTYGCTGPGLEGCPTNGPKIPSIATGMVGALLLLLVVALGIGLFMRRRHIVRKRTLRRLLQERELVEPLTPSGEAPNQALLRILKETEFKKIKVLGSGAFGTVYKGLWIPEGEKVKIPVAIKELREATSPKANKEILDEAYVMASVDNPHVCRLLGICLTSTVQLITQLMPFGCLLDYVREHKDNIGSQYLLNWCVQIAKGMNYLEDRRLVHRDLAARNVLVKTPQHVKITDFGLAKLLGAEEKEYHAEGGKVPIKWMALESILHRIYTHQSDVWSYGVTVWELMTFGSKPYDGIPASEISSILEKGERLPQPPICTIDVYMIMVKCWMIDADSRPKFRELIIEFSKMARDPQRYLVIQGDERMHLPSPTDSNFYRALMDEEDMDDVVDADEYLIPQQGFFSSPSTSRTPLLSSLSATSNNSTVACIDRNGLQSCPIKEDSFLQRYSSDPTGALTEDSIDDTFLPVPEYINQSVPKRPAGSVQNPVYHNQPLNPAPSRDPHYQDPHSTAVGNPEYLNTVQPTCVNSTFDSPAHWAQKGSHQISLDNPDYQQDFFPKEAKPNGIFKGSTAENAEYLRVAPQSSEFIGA
Myosin light chain kinase family member 4 (Homo sapiens), sequence (Q86YV6 whole entry): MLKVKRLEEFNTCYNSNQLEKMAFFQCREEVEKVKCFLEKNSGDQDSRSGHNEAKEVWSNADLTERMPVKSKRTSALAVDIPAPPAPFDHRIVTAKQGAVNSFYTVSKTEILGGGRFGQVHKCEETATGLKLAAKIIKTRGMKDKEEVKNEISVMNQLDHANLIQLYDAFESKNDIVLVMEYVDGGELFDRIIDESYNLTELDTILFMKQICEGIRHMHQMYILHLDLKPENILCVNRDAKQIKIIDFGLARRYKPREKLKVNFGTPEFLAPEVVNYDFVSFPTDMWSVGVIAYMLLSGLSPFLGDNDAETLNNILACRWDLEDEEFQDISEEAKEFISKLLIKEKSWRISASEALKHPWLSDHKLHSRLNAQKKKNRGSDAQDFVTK
Homeodomain-interacting protein kinase 1 (Homo sapiens), sequence (Q86Z02 whole entry, looked up): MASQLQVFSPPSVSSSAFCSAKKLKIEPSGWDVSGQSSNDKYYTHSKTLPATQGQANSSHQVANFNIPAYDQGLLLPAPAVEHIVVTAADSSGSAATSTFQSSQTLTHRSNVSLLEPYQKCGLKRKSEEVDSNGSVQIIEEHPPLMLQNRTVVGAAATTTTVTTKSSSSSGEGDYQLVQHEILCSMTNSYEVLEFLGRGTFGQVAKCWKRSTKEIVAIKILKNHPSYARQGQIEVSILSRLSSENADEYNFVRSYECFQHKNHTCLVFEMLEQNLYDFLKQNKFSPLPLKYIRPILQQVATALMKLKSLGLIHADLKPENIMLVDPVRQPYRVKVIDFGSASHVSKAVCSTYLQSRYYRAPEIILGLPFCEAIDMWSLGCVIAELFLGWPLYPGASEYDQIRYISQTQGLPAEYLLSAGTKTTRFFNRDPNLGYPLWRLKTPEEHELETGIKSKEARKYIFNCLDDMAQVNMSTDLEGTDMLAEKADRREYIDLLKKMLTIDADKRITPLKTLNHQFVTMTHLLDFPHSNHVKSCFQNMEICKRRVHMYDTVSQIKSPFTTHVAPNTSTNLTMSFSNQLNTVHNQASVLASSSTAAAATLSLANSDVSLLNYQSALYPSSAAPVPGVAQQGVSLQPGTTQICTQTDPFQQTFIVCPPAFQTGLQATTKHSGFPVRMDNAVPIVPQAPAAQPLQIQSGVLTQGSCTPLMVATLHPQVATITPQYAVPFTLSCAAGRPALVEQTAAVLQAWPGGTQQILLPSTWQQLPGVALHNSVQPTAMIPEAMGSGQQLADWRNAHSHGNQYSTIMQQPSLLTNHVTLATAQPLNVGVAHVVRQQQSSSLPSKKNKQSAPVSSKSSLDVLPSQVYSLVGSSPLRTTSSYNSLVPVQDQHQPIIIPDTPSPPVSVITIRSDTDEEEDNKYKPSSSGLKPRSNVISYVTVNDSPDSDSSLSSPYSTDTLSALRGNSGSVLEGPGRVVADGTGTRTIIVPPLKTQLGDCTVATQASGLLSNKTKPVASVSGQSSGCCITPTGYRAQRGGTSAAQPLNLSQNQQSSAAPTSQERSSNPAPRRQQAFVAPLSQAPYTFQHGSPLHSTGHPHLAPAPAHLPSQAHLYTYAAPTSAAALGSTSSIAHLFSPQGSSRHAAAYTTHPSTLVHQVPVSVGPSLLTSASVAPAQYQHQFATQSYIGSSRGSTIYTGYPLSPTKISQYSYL
Insulin-like growth factor 1 receptor (Homo sapiens), sequence (P08069 31-736 limits assumed): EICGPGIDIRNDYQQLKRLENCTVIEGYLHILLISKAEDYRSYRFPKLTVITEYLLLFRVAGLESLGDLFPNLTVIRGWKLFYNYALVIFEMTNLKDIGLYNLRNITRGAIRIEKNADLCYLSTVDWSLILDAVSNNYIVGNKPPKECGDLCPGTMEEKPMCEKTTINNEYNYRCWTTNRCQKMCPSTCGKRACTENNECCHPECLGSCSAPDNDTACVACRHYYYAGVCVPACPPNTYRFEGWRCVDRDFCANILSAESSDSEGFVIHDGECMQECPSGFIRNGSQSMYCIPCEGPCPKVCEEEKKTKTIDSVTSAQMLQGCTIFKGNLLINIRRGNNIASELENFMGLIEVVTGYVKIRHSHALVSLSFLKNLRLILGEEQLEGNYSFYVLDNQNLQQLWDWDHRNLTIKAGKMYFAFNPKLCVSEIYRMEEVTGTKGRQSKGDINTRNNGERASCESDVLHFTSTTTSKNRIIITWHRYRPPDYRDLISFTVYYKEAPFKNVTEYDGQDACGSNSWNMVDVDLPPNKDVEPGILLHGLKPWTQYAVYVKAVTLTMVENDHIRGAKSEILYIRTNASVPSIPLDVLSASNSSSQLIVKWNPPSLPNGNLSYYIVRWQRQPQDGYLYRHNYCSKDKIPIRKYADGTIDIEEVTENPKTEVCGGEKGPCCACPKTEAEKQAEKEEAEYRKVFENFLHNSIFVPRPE
Insulin-like growth factor 1 receptor (Homo sapiens), sequence (P08069 741-1367 limits assumed): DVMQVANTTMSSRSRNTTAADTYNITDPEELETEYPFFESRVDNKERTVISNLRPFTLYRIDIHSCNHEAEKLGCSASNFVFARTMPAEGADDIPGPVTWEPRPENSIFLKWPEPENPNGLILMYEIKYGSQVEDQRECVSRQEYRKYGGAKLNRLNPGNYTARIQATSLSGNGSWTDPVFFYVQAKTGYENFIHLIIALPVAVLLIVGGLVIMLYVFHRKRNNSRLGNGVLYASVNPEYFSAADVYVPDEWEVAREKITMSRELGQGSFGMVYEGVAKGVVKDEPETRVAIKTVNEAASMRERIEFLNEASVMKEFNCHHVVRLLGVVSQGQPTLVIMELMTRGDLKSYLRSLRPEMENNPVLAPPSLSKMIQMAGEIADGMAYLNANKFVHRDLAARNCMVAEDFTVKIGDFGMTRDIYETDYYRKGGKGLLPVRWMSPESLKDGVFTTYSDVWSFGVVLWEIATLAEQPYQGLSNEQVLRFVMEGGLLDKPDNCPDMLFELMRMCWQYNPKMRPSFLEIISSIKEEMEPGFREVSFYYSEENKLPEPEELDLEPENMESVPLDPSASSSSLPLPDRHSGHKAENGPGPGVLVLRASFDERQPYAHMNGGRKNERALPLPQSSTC
5-hydroxytryptamine receptor 2A (Homo sapiens), sequence (P28223 whole entry): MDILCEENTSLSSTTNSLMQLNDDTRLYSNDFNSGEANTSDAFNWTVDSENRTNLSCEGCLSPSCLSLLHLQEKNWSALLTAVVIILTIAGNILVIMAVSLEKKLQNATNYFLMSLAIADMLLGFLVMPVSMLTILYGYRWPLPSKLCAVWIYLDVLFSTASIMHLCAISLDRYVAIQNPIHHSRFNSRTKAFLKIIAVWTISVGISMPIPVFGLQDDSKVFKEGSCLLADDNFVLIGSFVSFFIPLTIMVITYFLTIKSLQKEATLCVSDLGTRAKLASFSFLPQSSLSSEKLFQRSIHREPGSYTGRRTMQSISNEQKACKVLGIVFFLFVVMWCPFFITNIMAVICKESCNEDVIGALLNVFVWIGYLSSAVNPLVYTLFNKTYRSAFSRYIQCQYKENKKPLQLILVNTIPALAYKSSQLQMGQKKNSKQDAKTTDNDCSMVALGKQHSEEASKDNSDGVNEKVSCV
Kappa-type opioid receptor (Homo sapiens), sequence (P41145 whole entry): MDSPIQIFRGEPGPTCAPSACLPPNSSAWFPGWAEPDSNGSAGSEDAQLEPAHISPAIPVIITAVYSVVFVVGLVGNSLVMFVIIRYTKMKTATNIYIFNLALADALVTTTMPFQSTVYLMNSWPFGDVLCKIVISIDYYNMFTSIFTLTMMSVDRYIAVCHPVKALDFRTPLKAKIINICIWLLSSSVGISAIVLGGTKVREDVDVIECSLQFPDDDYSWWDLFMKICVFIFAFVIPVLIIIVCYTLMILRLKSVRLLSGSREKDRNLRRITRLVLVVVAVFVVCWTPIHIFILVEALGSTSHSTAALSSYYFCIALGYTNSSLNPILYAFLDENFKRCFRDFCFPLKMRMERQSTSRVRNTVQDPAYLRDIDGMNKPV

COc1ccc2c(c1)O[C@@H](c1ccc(OC)c(OC)c1)C[C@H]2NC(=O)C1(c2ccc3c(c2)OC(F)(F)O3)CC1 [A-1596586]
% Inhibition of Control Specific Binding (Mean n=2) [1]: 29.3%
residual activity [2]: 100%
residual activity [3]: 97%
residual activity [4]: 82%
residual activity [5]: 100%
% Inhibition of Control Specific Binding (Mean n=2) [6]: -20.6%
% Inhibition of Control Specific Binding (Mean n=2) [7]: 42.2%
residual activity [8]: 98%
residual activity [9]: 95%
residual activity [10]: 94%
residual activity [11]: 85%
residual activity [12]: 68%
residual activity [13]: 86%
residual activity [14]: 100%
residual activity [15]: 90%
residual activity [16]: 62%
residual activity [17]: 86%
residual activity [18]: 100%
residual activity [19]: 76%
residual activity [20]: 83%
residual activity [21]: 100%
Ki [22]: 1190 nM
inhibition [23]: -2.97%
residual activity [24]: 100%
inhibition [25]: 8.84%
residual activity [26]: 100%
residual activity [27]: 81%
residual activity [28]: 93%
residual activity [29]: 79%
residual activity [30]: 89%
residual activity [31]: 97%
residual activity [32]: 89%
residual activity [33]: 75%
residual activity [34]: 100%
residual activity [35]: 100%
residual activity [36]: 82%
EC50 [37]: > 20000 nM (not active)
residual activity [38]: 85%
residual activity [39]: 78%
residual activity [40]: 97%
residual activity [41]: 90%
residual activity [42]: 78%
% Inhibition of Control Specific Binding (Mean n=2) [43]: 23.5%
% Inhibition of Control Specific Binding (Mean n=2) [44]: -51.6%

COc1ccc2c(c1)O[C@H](c1ccc(OC)c(OC)c1)C[C@@H]2NC(=O)C1(c2ccc3c(c2)OC(F)(F)O3)CC1 [A-1596584]
% Inhibition of Control Specific Binding (Mean n=2) [1]: 15.7%
residual activity [2]: 100%
residual activity [3]: 85%
residual activity [4]: 100%
residual activity [5]: 100%
% Inhibition of Control Specific Binding (Mean n=2) [6]: -28%
% Inhibition of Control Specific Binding (Mean n=2) [7]: 44.7%
residual activity [8]: 100%
residual activity [9]: 100%
residual activity [10]: 87%
residual activity [11]: 88%
residual activity [12]: 61%
residual activity [13]: 87%
residual activity [14]: 100%
residual activity [15]: 98%
residual activity [16]: 59%
residual activity [17]: 99%
residual activity [18]: 100%
residual activity [19]: 100%
residual activity [20]: 61%
residual activity [21]: 100%
Ki [22]: 584 nM
inhibition [23]: 6.21%
residual activity [24]: 100%
inhibition [25]: 7.46%
residual activity [26]: 100%
residual activity [27]: 100%
residual activity [28]: 95%
residual activity [29]: 95%
residual activity [30]: 100%
residual activity [31]: 100%
residual activity [32]: 100%
residual activity [33]: 84%
residual activity [34]: 84%
residual activity [35]: 98%
residual activity [36]: 84%
EC50 [37]: > 20000 nM (not active)
residual activity [38]: 90%
residual activity [39]: 81%
residual activity [40]: 100%
residual activity [41]: 100%
residual activity [42]: 88%
% Inhibition of Control Specific Binding (Mean n=2) [43]: 18.2%
% Inhibition of Control Specific Binding (Mean n=2) [44]: -38.6%
